# Source: article PMC10535379 (Viruses, 2023)
# Entries after “also recorded” stand apart in the source; their conditions may differ. Structures can show the parent of a compound that is named as a salt. Where two headings read alike, the source gives them in different places.
# Tests used:
# FMDV serotype A (NP05) [1] = test system: FMDV serotype A (NP05)
# FMDV serotype A (NP05) [2] = experiment: microbe, parasite or virus in culture; format: cell-based, foot-and-mouth disease virus; settings: for EC50: Foot-and-mouth disease virus, BHK-21, read-out: EC50 Co-Treatment
# in vitro = settings: hamster
# FMDV serotype A (NP05) [3] = experiment: microbe, parasite or virus in culture; format: cell-based, foot-and-mouth disease virus; settings: for EC50: Foot-and-mouth disease virus, BHK-21, read-out: EC50 Pre-Treatment
# [4] = test system: Schizosaccharomyces pombe; settings: cited from earlier work
# FMDV serotype A (NP05) [5] = format: cell-based, foot-and-mouth disease virus; settings: for Virucidal effect: 50 µM, 0 min
# Saccharomyces cerevisiae = settings: cited from earlier work
# FMDV serotype A (NP05) [6] = format: cell-based, foot-and-mouth disease virus
# FMDV 3Cpro = FMDV 3Cpro (Foot-and-mouth disease virus, UniProt P03306); experiment: cell-based
# Sequence of FMDV 3Cpro (P03306 1650-1862 limits assumed): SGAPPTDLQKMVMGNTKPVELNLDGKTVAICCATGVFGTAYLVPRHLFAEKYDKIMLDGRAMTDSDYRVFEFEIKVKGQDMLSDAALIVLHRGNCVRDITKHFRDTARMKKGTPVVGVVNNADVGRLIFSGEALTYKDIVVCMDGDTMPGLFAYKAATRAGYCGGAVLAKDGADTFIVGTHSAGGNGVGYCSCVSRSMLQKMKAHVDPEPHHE
# HEK-293T cells = settings: human
# FMDV serotype A (NP05) [7] = experiment: microbe, parasite or virus in culture; settings: Foot-and-mouth disease virus, BHK-21, read-out: EC50 Post Entry
# FMDV serotype A (NP05) [8] = format: cell-based, foot-and-mouth disease virus; remark: listed apart in the source
# BHK-21 cells = settings: hamster
# FMDV = settings: cited from earlier work
# FMDV serotype A (NP05) [9] = experiment: in vitro; settings: hamster
# carboxypeptidase B = settings: cited from earlier work
# [10] = test system: human respiratory syncytial virus (RSV); settings: read-out: IC50 against RSV; cited from earlier work
# HEP-2 cells = settings: human; cited from earlier work
# [11] = HEK-293T, read-out: Inhibition of FMDV 3Cpro
compound,measurement,setting,value
"COc1cc(/C=N/Nc2nc3c([nH]2)c(=O)n(C)c(=O)n3C)ccc1O [NSC64672, 8-[(2E)-2-[(4-hydroxy-3-methoxyphenyl)methylidene]hydrazinyl]-1,3-dimethyl-7H-purine-2,6-dione]",EC50 Post Entry,FMDV serotype A (NP05) [1],I
same,EC50 Co-Treatment,FMDV serotype A (NP05) [2],I
same,CC50,in vitro,130 ± 2.3 µM
same,EC50 Pre-Treatment,FMDV serotype A (NP05) [3],I
"Cc1ccc([N+](=O)[O-])cc1NC(=O)c1cccc([N+](=O)[O-])c1O [NSC79451, 2-Hydroxy-N-(2-methyl-5-nitrophenyl)-3-nitrobenzamide]",Inhibition of Schizosaccharomyces pombe,[4],none of them could inhibit
same,EC50,FMDV serotype A (NP05) [2],1.56 ± 0.03 µM
same,Virucidal effect,FMDV serotype A (NP05) [5],good inhibition at 0 min
same,CC50,in vitro,32.79 ± 0.3 µM
same,Inhibition of Saccharomyces cerevisiae,Saccharomyces cerevisiae,none of them could inhibit
same,EC50 Pre-Treatment,FMDV serotype A (NP05) [3],I
"N#Cc1cc(-c2ccccc2)[nH]c1-c1nccc2ccccc12 [NSC116640, 2-isoquinolin-1-yl-5-phenyl-1H-pyrrole-3-carbonitrile]",Viral load (viral copy number) reduction,FMDV serotype A (NP05) [6],reduce the viral loads in a dose-dependent manner
same,Concentration required for 80% inhibition of FMDV 3Cpro,FMDV 3Cpro,more than 40 µM
same,IC50,FMDV 3Cpro,10.8 µM
same,EC50,FMDV serotype A (NP05) [2],5.74 ± 0.23 µM
same,MNTD90 (maximum non-toxic dose),HEK-293T cells,50 µM
same,EC50,FMDV serotype A (NP05) [7],2.88 ± 0.17 µM
same,Number of viruses,FMDV serotype A (NP05) [8],slightly increased
same,Virus yield (% of viral copy numbers),FMDV serotype A (NP05) [8],0–10%
same,Reduction of viral titers,FMDV serotype A (NP05) [5],1.00–2.27 log TCID50/mL
same,MNTD90 (maximum non-toxic dose),BHK-21 cells,50 µM
same,Potent activity in StopGo luciferase anti-FMDV screen,FMDV,28.18 µM
same,selectivity ratio,FMDV serotype A (NP05) [9],73.2
same,CC50,in vitro,210.7 ± 0.17 µM
same,EC50,FMDV serotype A (NP05) [3],7.27 ± 0.86 µM
"O=[N+]([O-])c1ccccc1/C=C/C=N/N=C/c1ccccc1O [NSC119805, 2-[(E)-[(E)-[(E)-3-(2-nitrophenyl)prop-2-enylidene]hydrazinylidene]methyl]phenol]",EC50 Post Entry,FMDV serotype A (NP05) [1],I
same,EC50 Co-Treatment,FMDV serotype A (NP05) [2],I
same,CC50,in vitro,82.45 ± 0.4 µM
same,EC50 Pre-Treatment,FMDV serotype A (NP05) [3],I
"CCN(CC)CCCC(C)NC(=O)c1ccc2c(c1)C(=O)c1ccccc1C2=O (stereo not shown) [NSC331757, N-[5-(diethylamino)pentan-2-yl]-9,10-dioxoanthracene-2-carboxamide;hydrochloride]",EC50 Post Entry,FMDV serotype A (NP05) [1],I
same,EC50 Co-Treatment,FMDV serotype A (NP05) [2],I
same,CC50,in vitro,62.8 ± 0.87 µM
same,EC50 Pre-Treatment,FMDV serotype A (NP05) [3],I
"Oc1ccccc1-c1nc2c3ccccc3c3ccccc3c2[nH]1 [NSC332670, 6-(1,3-Dihydrophenanthro[9,10-d]imidazol-2-ylidene)cyclohexa-2,4-dien-1-one]",Viral load (viral copy number) reduction,FMDV serotype A (NP05) [6],reduce the viral loads in a dose-dependent manner
same,IC50,carboxypeptidase B,1550 µM
same,IC50,FMDV 3Cpro,4.21 µM
same,inhibition at 10 µM,FMDV 3Cpro; [11],~90%
same,inhibition at 40 µM,FMDV 3Cpro; [11],100%
same,EC50,FMDV serotype A (NP05) [2],2.04 ± 0.02 µM
same,MNTD90 (maximum non-toxic dose),HEK-293T cells,50 µM
same,EC50,FMDV serotype A (NP05) [7],5.92 ± 0.2 µM
same,Inhibition effect,FMDV serotype A (NP05) [8],reduced; also recorded: completely lost
same,Viral inhibition,FMDV serotype A (NP05) [8],great inhibition
same,Reduction of viral titers,FMDV serotype A (NP05) [5],1.17–2.27 log TCID50/mL
same,MNTD90 (maximum non-toxic dose),BHK-21 cells,50 µM
same,IC50,[10],11 µM
same,selectivity ratio,FMDV serotype A (NP05) [9],11.1
same,CC50,in vitro,65.82 ± 0.06 µM
same,EC50,FMDV serotype A (NP05) [3],7.18 ± 0.98 µM
same,CC50,HEP-2 cells,15.3 µM
"N#CC(c1ccccc1)N(CCCCCCN(C(=O)c1ccccc1)C(C#N)c1ccccc1)C(=O)c1ccccc1 (stereo not shown) [NSC681744, N-[6-[benzoyl-[cyano(phenyl)methyl]amino]hexyl]-N-[cyano(phenyl)methyl]benzamide]",Inhibition of Schizosaccharomyces pombe,[4],none of them could inhibit
same,EC50,FMDV serotype A (NP05) [2],4.83 ± 0.08 µM
same,Virucidal effect,FMDV serotype A (NP05) [5],good inhibition at 0 min
same,CC50,in vitro,124 ± 0.5 µM
same,Inhibition of Saccharomyces cerevisiae,Saccharomyces cerevisiae,none of them could inhibit
same,EC50 Pre-Treatment,FMDV serotype A (NP05) [3],I
